According to patent publication US10584117B2, “1,3,4-oxadiazole amide derivative compound as histone deacetylase 6 inhibitor, and pharmaceutical composition containing same” (Chong Kun Dang Pharmaceutical Corp., priority 2015, dated 2020):

What was measured:
human recombinant HDAC1 = target: T1, human recombinant HDAC1 (Homo sapiens, UniProt Q13547); test: HDAC enzyme activity inhibition assay (HDAC1, fluorimetric kit); assay type: biochemical; conditions: 0.3 μg enzyme, 10 μM substrate, 30° C., 60 minutes
T1 construct: purchased Enzo Life Science BML-SE456
Experimental: In order to examine the HDAC6 selectivity of the compounds of formula I of the present invention by HDAC1 and HDAC6 enzymatic activity inhibition assays, an experiment was performed using a conventional substance as a control. HDAC enzyme activity was measured using a HDAC Fluorimetric Drug Discovery Kit (BML-AK511, 516) from Enzo Life Science. For the HDAC1 enzyme activity test, human recombinant HDAC1 (BML-SE456) was used as an enzyme source, and Fluor de Lys®-“SIRT1 (BNL-KI177) was used as a substrate. A 5-fold dilution of the compound was seeded into a 96-well plate, and then 0.3 μg of the enzyme and 10 μM of the substrate were added to each well of the plate and allowed to react at 30° C. for 60 minutes. Then, Fluor de Lys®-Developer II (BML-KI176) was added thereto and allowed to react for 30 minutes, after which the fluorescence value (Ex 360, Em 460) was measured using a multi-plate reader (Flexstation 3, Molecular Device). The HDAC6 enzyme was tested using human recombinant HDAC6 (382180) from Calbiochem, according to the same protocol as the HDAC1 enzyme activity test method. Based on the resulting values, each IC50 value was calculated using GraphPad Prism4.0 program.

human recombinant HDAC6 = target: T2, human recombinant HDAC6 (Homo sapiens, UniProt Q9UBN7); test: HDAC enzyme activity inhibition assay (HDAC6, fluorimetric kit); assay type: biochemical; conditions: for HDAC6 selectivity (fold): HDAC6 versus HDAC1; for IC50: same protocol as the HDAC1 test
T2 construct: purchased Calbiochem 382180
T2 sequence (Q9UBN7 1-1215): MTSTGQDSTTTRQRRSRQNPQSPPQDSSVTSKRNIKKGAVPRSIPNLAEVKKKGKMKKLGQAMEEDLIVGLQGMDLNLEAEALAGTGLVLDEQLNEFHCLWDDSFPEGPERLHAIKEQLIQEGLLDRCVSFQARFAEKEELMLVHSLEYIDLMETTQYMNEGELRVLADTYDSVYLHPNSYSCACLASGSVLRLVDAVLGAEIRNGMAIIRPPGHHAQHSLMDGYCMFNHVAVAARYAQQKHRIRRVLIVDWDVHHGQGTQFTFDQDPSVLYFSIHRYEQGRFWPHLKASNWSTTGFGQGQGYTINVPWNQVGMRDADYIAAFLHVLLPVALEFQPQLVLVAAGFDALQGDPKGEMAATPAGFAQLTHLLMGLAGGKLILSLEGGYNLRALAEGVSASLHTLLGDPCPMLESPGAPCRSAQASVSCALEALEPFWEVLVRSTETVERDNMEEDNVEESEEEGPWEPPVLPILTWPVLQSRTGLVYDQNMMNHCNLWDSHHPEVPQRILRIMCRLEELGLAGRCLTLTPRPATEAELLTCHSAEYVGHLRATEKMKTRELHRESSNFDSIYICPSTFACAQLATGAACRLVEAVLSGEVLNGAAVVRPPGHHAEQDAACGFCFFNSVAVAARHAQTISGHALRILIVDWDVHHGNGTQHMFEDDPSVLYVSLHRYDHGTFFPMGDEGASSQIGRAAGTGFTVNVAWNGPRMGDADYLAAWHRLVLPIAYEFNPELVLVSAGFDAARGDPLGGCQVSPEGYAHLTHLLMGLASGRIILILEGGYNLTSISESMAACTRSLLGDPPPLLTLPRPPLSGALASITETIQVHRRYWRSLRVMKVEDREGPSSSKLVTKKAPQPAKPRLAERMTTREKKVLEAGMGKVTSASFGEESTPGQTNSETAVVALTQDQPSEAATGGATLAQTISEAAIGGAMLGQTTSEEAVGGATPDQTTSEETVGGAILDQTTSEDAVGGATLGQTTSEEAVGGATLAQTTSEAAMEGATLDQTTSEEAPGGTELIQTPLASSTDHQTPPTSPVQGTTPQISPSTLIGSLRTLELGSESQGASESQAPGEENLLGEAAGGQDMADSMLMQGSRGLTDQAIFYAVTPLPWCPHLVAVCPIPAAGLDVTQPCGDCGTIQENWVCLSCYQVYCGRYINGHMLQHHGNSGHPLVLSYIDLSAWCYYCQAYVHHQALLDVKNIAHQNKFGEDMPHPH
Summary of the method: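 Fluorimetric kit assay: human recombinant HDAC1 or HDAC6 (0.3 μg) reacted with 10 μM Fluor de Lys-SIRT1 substrate and 5-fold serially diluted compound for 60 minutes at 30° C, followed by 30 minutes of developer. Fluorescence was read at Ex 360/Em 460, and IC50 values were calculated from it.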

T1 sequence (Q13547 whole entry): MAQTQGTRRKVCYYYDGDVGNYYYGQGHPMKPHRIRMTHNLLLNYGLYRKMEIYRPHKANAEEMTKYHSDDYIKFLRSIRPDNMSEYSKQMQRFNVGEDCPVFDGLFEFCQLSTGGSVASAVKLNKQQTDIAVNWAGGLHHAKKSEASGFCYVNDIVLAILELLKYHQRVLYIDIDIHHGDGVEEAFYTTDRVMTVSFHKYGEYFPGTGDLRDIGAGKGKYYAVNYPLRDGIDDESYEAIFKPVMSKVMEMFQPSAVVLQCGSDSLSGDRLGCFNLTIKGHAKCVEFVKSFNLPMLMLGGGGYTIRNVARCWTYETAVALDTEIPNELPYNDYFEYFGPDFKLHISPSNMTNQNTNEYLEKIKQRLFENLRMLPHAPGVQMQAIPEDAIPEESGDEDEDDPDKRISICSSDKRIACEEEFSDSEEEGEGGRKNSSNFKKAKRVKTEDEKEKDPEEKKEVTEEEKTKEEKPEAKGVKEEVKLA

IC50 (human recombinant HDAC1) [nM] | HDAC6 selectivity (fold) (human recombinant HDAC6) | IC50 (human recombinant HDAC6) [nM] | Structure (SMILES)
 | 535 | 187 | O=C(C1CC1)N1CCN(CC(=O)N(Cc2ccc(-c3nnc(C(F)F)o3)cc2F)c2ccc(F)c(Cl)c2)CC1 [Compound 11612, N-(3-chloro-4-fluorophenyl)-2-(4-(cyclopropanecarbonyl)piperazin-1-yl)-N-(4-(5-(difluoromethyl)-1,3,4-oxadiazol-2-yl)-2-fluorobenzyl)acetamide]
 | 676 | 148 | CS(=O)(=O)N1CCN(CC(=O)N(Cc2ccc(-c3nnc(C(F)F)o3)cc2F)c2ccc(F)c(Cl)c2)CC1 [Compound 11613, N-(3-chloro-4-fluorophenyl)-N-(4-(5-(difluoromethyl)-1,3,4-oxadiazol-2-yl)-2-fluorobenzyl)-2-(4-(methylsulfonyl)piperazin-1-yl)acetamide]
 | 1190 | 84 | O=C(CN1CCN(C2COC2)CC1)N(Cc1ccc(-c2nnc(C(F)F)o2)cc1F)c1ccc(F)c(Cl)c1 [Compound 11614, N-(3-chloro-4-fluorophenyl)-N-(4-(5-(difluoromethyl)-1,3,4-oxadiazol-2-yl)-2-fluorobenzyl)-2-(4-(oxetan-3-yl)piperazin-1-yl)acetamide]

The next lines start with the compound.

Structure (SMILES) | IC50 (human recombinant HDAC1) [nM] | HDAC6 selectivity (fold) (human recombinant HDAC6) | IC50 (human recombinant HDAC6) [nM]
O=C(C1CCN(Cc2ccccc2)CC1)N(Cc1ccc(-c2nnc(C(F)(F)F)o2)cc1)c1ccccc1 [Compound 11166, 1-benzyl-N-phenyl-N-(4-(5-(trifluoromethyl)-1,3,4-oxadiazol-2-yl)benzyl)piperidine-4-carboxamide] | 27200 | 194 | 516
O=C(C1CCS(=O)(=O)CC1)N(Cc1ccc(-c2nnc(C(F)(F)F)o2)cc1F)c1ccc(F)c(Cl)c1 [Compound 11602, N-(3-chloro-4-fluorophenyl)-N-(2-fluoro-4-(5-(trifluoromethyl)-1,3,4-oxadiazol-2-yl)benzyl)tetrahydro-2H-thiopyran-4-carboxamide 1,1-dioxide] |  | 263 | 380
O=C(C1CCS(=O)(=O)CC1)N(Cc1ccc(-c2nnc(C(F)F)o2)cc1F)c1ccc(F)c(Cl)c1 [Compound 11603, N-(3-chloro-4-fluorophenyl)-N-(4-(5-(difluoromethyl)-1,3,4-oxadiazol-2-yl)-2-fluorobenzyl)tetrahydro-2H-thiopyran-4-carboxamide 1,1-dioxide] |  | 685 | 146
O=C(CN1CCS(=O)(=O)CC1)N(Cc1ccc(-c2nnc(C(F)F)o2)cc1F)c1ccc(F)c(Cl)c1 [Compound 11610, N-(3-chloro-4-fluorophenyl)-N-(4-(5-(difluoromethyl)-1,3,4-oxadiazol-2-yl)-2-fluorobenzyl)-2-(1,1-dioxidothiomorpholino)acetamide] |  | 690 | 145
CC(=O)N1CCN(CC(=O)N(Cc2ccc(-c3nnc(C(F)F)o3)cc2F)c2ccc(F)c(Cl)c2)CC1 [Compound 11611, 2-(4-acetylpiperazin-1-yl)-N-(3-chloro-4-fluorophenyl)-N-(4-(5-(difluoromethyl)-1,3,4-oxadiazol-2-yl)-2-fluorobenzyl)acetamide] |  | 625 | 160
O=C(C1CCN(C2COC2)CC1)N(Cc1ccc(-c2nnc(C(F)(F)F)o2)cc1F)c1ccccc1 [Compound 11621, N-(2-fluoro-4-(5-(trifluoromethyl)-1,3,4-oxadiazol-2-yl)benzyl)-1-(oxetan-3-yl)-N-phenylpiperidine-4-carboxamide] |  | 358 | 279
O=C(C1CCN(C2COC2)CC1)N(Cc1ccc(-c2nnc(C(F)F)o2)cc1F)c1ccccc1 [Compound 11622, N-(4-(5-(difluoromethyl)-1,3,4-oxadiazol-2-yl)-2-fluorobenzyl)-1-(oxetan-3-yl)-N-phenylpiperidine-4-carboxamide] |  | 714 | 140
